US20260098061A1, “EPHA2-BINDING PENDING PEPTIDE AND COMPOSITION COMPRISING SAME” (PeptiDream Inc., priority 2022, published 2026)
Numbered stars: 1 amine (or outer) side, 2 acyl side, 3 side chain; on linkers, the order of the positions; unused ones are H or OH. Bridge positions count the residues as written; N and C are the ends. Square brackets hold non-standard residues; d marks the D form. Side chains are listed from the residue outwards. Peptide text beside a SMILES is read from it. * marks the point of attachment. Trp(1-Me,7-Cl) = Cn1cc(C[C@H](N)C(=O)O)c2cccc(Cl)c21; dPhe(3-CONH2) = NC(=O)c1cccc(C[C@@H](N)C(=O)O)c1; Piperazinyl(4-CH2COOH) = O=C(O)CN1CCN(*)CC1; Trp(1-Me) = Cn1cc(C[C@H](N)C(=O)O)c2ccccc21; NMe3Pal = CN[C@@H](Cc1cccnc1)C(=O)O; NMeF = CN[C@@H](Cc1ccccc1)C(=O)O; hArg = N=C(N)NCCCC[C@H](N)C(=O)O; hCit = NC(=O)NCCCC[C@H](N)C(=O)O; Gly(cBu) = N[C@H](C(=O)O)C1CCC1; NMeE = CN[C@@H](CCC(=O)O)C(=O)O; Aad = N[C@@H](CCCC(=O)O)C(=O)O; NMeN = CN[C@@H](CC(N)=O)C(=O)O; CO = O=C([*:1])[*:2]

biological target: T1, Recombinant Human EphA2 Fc Protein (Homo sapiens, UniProt P29317); experiment: SPR interaction analysis (Biacore T200), kinetics of peptides against EphA2; assay type: binding; conditions: Recombinant Human EphA2 Fc Protein captured by Human Antibody Capture kit; single-cycle kinetics; 25° C.; HBS-P+ buffer with 1% DMSO
T1 construct: purchased Elabscience
Summary of the method: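 KD derived from ka and kd, fitted on baseline-subtracted sensorgrams from single-cycle kinetics of five peptide dilutions. Running buffer: HBS-P+ (pH 7.4) plus 1% DMSO, 25° C, Biacore T200. Recombinant human EphA2-Fc held on an antibody capture surface.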

Kd, < 1 nM:
CC(C)[C@@H]1NC(=O)[C@H](Cc2cn(C)c3c(Cl)cccc23)NC(=O)[C@H](CC(N)=O)N(C)C(=O)[C@H](CCCC(N)=O)NC(=O)[C@H](C2CCC2)NC(=O)[C@H](CC(N)=O)NC(=O)[C@H](Cc2cccnc2)N(C)C(=O)[C@@H](Cc2cccc(C(N)=O)c2)NC(=O)CSC[C@@H](C(N)=O)NC(=O)[C@H](CCCC(N)=O)NC(=O)[C@H]([C@@H](C)O)NC(=O)[C@H](Cc2cn(C)c3ccccc23)NC1=O [PDC_EphA2-00019424, df3CON-Me3Py-N-Cbg-Hgn-MeN-W1Me7Cl-V-W1Me-T-Hgn-C-NH2] ({CH2CO}-[dPhe(3-CONH2)][NMe3Pal]N[Gly(cBu)][Aad](NH2)[NMeN][Trp(1-Me,7-Cl)]V[Trp(1-Me)]T[Aad](NH2)C-NH2; thioether N-12)
C[C@@H](O)[C@@H]1NC(=O)[C@H](Cc2cn(C)c3ccccc23)NC(=O)[C@H](CCCCNC(=O)N2CCN(CC(=O)O)CC2)NC(=O)[C@H](Cc2cn(C)c3c(Cl)cccc23)NC(=O)[C@H](CC(N)=O)N(C)C(=O)[C@H](CCCC(N)=O)NC(=O)[C@H](C2CCC2)NC(=O)[C@H](CC(N)=O)NC(=O)[C@H](Cc2ccccc2)N(C)C(=O)[C@@H](Cc2cccc(C(N)=O)c2)NC(=O)CSC[C@@H](C(N)=O)NC(=O)[C@H](CCCC(N)=O)NC1=O [PDC_EphA2-00019425, df3CON-MeF-N-Cbg-Hgn-MeN-W1Me7Cl-KCOpipzaa-W1Me-T-Hgn-C-NH2] ({CH2CO}-[dPhe(3-CONH2)][NMeF]N[Gly(cBu)][Aad](NH2)[NMeN][Trp(1-Me,7-Cl)]K([CO-Piperazinyl(4-CH2COOH)])[Trp(1-Me)]T[Aad](NH2)C-NH2; thioether N-12)
C[C@@H](O)[C@@H]1NC(=O)[C@H](Cc2cn(C)c3ccccc23)NC(=O)[C@H](CCCCNC(N)=O)NC(=O)[C@H](Cc2cn(C)c3c(Cl)cccc23)NC(=O)[C@H](CCC(=O)O)N(C)C(=O)[C@H](CCCC(N)=O)NC(=O)[C@H](C2CCC2)NC(=O)[C@H](CC(N)=O)NC(=O)[C@H](Cc2ccccc2)N(C)C(=O)[C@@H](Cc2cccc(C(N)=O)c2)NC(=O)CSC[C@@H](C(N)=O)NC(=O)[C@H](CCCCNC(=N)N)NC1=O [PDC_EphA2-00019426, df3CON-MeF-N-Cbg-Hgn-MeN-W1Me7Cl-Hcit-W1Me-T-Hgn-C-NH2] ({CH2CO}-[dPhe(3-CONH2)][NMeF]N[Gly(cBu)][Aad](NH2)[NMeE][Trp(1-Me,7-Cl)][hCit][Trp(1-Me)]T[hArg]C-NH2; thioether N-12)
C[C@@H](O)[C@@H]1NC(=O)[C@H](Cc2cn(C)c3ccccc23)NC(=O)[C@H](CCCCNC(N)=O)NC(=O)[C@H](Cc2cn(C)c3c(Cl)cccc23)NC(=O)[C@H](CC(N)=O)N(C)C(=O)[C@H](CCCC(N)=O)NC(=O)[C@H](C2CCC2)NC(=O)[C@H](CC(N)=O)NC(=O)[C@H](Cc2cccnc2)N(C)C(=O)[C@@H](Cc2cccc(C(N)=O)c2)NC(=O)CSC[C@@H](C(N)=O)NC(=O)[C@H](CCCNC(=N)N)NC1=O [PDC_EphA2-00019428, df3CON-Me3Py-N-Cbg-Hgn-MeN-W1Me7Cl-Hcit-W1Me-T-R-C-NH2] ({CH2CO}-[dPhe(3-CONH2)][NMe3Pal]N[Gly(cBu)][Aad](NH2)[NMeN][Trp(1-Me,7-Cl)][hCit][Trp(1-Me)]TRC-NH2; thioether N-12)
C[C@@H](O)[C@@H]1NC(=O)[C@H](Cc2cn(C)c3ccccc23)NC(=O)[C@H](CCCCNC(N)=O)NC(=O)[C@H](Cc2cn(C)c3c(Cl)cccc23)NC(=O)[C@H](CC(N)=O)N(C)C(=O)[C@H](CCCC(N)=O)NC(=O)[C@H](C2CCC2)NC(=O)[C@H](CC(N)=O)NC(=O)[C@H](Cc2cccnc2)N(C)C(=O)[C@@H](Cc2cccc(C(N)=O)c2)NC(=O)CSC[C@@H](C(N)=O)NC(=O)[C@H](CCCCNC(=N)N)NC1=O [PDC_EphA2-00019429, df3CON-Me3Py-N-Cbg-Hgn-MeN-W1Me7Cl-Hcit-W1Me-T-Har-C-NH2] ({CH2CO}-[dPhe(3-CONH2)][NMe3Pal]N[Gly(cBu)][Aad](NH2)[NMeN][Trp(1-Me,7-Cl)][hCit][Trp(1-Me)]T[hArg]C-NH2; thioether N-12)
